Experimental data: ChEMBL document CHEMBL1201862, “PubChem BioAssay data set” (2004)
Calls of active or inactive are those of the source.

Tests used:
[1] = Counterscreen for inhibitors of Trypanosoma brucei methionyl tRNA synthetase (MetRS): Luminescence-based cell-based high throughput dose response assay to identify compounds that are cytotoxic to Jurkat human T lymphocyte cells.; format: functional
[2] = biological target: T1, Methionyl-tRNA synthetase, putative (Trypanosoma brucei brucei, UniProt Q38C91); format: functional, Trypanosoma brucei brucei strain 927/4 GUTat10.1
T1 sequence (Q38C91 whole entry): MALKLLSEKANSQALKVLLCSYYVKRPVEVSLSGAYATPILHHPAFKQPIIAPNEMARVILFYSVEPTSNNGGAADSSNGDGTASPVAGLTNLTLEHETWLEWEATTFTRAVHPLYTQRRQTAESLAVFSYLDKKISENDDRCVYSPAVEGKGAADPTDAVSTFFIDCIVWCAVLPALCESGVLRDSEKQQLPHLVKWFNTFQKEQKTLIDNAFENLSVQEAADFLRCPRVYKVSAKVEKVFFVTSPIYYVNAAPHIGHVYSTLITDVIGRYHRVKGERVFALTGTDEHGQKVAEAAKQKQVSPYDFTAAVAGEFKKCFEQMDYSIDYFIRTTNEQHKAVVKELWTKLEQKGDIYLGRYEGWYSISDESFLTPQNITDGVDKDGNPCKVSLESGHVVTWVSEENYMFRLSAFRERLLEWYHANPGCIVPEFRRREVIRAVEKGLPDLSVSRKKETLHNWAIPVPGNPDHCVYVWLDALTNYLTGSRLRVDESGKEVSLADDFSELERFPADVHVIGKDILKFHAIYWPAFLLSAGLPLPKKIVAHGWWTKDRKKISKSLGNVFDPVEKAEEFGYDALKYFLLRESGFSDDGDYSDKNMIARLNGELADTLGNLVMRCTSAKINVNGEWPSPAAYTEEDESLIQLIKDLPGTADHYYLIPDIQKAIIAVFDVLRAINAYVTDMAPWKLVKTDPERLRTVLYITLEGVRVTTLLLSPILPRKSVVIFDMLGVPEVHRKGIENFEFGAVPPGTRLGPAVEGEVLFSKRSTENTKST

[3] = biological target: T1, Methionyl-tRNA synthetase, putative; format: functional, Trypanosoma brucei brucei strain 927/4 GUTat10.1; remark: listed apart in the source
[4] = viability of PTEN-deleted HCT116 cells – cell-based, HCT116 PTEN knockout, dose response (AID 1047); format: functional;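 note: HCT116 colon tumor cells with PTEN knocked out; cells exposed to compound for 60 hours before readout; potency for loss of cell viability measured by luminescence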
[5] = viability of HCT116 lacking mutant beta-catenin – cell-based, human colon tumor, dose response (AID 1045); format: functional;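 note: HCT116 colon tumor cells with beta catenin knocked out; cells exposed to compound for 60 hours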
Large T antigen = Large T antigen (Simian virus 40, UniProt P03070); format: functional, Betapolyomavirus macacae;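 note: Confirmatory-stage PubChem screen for compounds that inhibit SV40 T antigen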
Chain of Large T antigen (P03070 whole entry): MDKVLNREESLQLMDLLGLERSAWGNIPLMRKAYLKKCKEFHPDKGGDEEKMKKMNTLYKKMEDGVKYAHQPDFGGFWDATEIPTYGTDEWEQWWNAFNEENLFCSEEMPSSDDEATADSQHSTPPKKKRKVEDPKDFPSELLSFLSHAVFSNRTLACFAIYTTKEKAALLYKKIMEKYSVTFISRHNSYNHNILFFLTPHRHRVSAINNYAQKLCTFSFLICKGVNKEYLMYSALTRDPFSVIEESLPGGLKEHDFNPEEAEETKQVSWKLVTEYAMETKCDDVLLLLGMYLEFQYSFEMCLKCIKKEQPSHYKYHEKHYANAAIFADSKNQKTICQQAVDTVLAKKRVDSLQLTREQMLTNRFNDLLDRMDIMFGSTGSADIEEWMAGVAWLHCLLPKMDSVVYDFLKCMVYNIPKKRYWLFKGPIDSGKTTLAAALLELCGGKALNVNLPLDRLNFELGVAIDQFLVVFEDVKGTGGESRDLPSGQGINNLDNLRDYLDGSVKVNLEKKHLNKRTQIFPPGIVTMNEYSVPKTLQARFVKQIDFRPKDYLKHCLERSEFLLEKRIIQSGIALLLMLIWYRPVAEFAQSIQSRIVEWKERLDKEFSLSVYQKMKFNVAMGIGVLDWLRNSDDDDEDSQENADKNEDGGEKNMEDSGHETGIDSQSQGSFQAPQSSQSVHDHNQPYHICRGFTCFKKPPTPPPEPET

[6] = biological target: FAD-linked sulfhydryl oxidase ALR (Homo sapiens, UniProt P55789); assay: ALR-catalysed DTT oxidation blockers – biochemical, H2O2 detection, luminescence, cherry-pick, dose response (AID 493248)
Chain of FAD-linked sulfhydryl oxidase ALR (P55789 whole entry): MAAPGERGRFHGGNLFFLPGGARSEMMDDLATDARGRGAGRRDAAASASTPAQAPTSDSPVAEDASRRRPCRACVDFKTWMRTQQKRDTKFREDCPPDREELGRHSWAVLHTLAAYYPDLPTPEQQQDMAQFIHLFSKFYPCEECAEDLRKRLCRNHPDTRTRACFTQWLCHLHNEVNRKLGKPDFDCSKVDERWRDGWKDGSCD

Cytochrome P450 3A4 = Cytochrome P450 3A4 (Homo sapiens, UniProt P08684); conditions: Potency;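 note: confirmatory qHTS run detecting inhibitors and substrates of CYP3A4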
Chain of Cytochrome P450 3A4 (P08684 whole entry): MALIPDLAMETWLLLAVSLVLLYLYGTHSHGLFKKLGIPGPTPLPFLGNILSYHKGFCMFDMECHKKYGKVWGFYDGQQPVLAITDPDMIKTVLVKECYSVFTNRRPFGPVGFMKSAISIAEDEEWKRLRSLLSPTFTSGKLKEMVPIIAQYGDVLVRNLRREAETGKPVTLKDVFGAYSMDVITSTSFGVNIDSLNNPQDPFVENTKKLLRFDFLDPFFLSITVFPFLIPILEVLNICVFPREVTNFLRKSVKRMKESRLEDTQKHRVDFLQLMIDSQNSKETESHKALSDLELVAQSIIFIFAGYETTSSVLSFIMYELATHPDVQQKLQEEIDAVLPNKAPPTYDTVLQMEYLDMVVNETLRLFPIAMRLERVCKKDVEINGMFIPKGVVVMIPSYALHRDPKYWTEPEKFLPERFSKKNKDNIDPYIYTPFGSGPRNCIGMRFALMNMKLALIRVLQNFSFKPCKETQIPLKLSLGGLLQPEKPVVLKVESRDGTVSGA

[7] = biological target: T2, DNA repair protein RAD52 homolog (Homo sapiens, UniProt P43351); format: functional, biochemical
T2 sequence (P43351 whole entry): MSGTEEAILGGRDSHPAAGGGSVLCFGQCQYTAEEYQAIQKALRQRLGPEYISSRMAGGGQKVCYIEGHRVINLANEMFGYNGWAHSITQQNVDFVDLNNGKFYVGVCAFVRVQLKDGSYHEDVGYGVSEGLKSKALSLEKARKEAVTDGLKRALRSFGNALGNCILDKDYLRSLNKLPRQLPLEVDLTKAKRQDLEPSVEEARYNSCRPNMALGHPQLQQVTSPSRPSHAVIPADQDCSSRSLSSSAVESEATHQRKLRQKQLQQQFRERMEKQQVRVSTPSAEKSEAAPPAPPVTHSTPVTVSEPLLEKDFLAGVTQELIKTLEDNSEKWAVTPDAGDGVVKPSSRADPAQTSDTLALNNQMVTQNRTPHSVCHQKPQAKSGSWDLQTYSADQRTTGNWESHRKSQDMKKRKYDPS

[8] = NIH3T3 cell viability loss – ATP luminescence, mouse fibroblasts, counter-screen, dose response (AID 2010); format: functional, cell-based;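 note: cells exposed to compound for about 90 hours before reading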
[9] = Trypanosoma cruzi growth suppression in host cells – NIH3T3 host cells, beta-gal luminescence, confirmation (AID 2044); format: functional, cell-based;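 note: intracellular parasites grown in NIH/3T3 mouse fibroblasts as host cells; luminescent beta-galactosidase reporter signal from transgenic T. cruzi replicating inside host cells; inhibitors lower the luminescence signal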
[10] = blockers of HIV-1 ZM109 envelope-driven cell-cell fusion – HeLa effector, CEM target cells, luciferase, cherry-pick, dose response (AID 652058); format: functional, cell-based;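 note: luciferase signal from HIV-1 Env mediated cell-cell fusion of effector and target cells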
[11] = blockers of HIV-1 envelope-mediated cell-cell fusion – cherry-pick, dose response (AID 652057); format: functional, cell-based
[12] = HIV-1 AD8 envelope cell-cell fusion blockers – cherry-pick, dose response (AID 652062); format: functional, cell-based;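 note: luciferase signal from cell-cell fusion driven by HIV-1 clade B AD8 Env; potency is for inhibitors of fusion seen as a drop in luminescence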
Prothrombin = Prothrombin (Homo sapiens, UniProt P00734); assay: Thrombin 1536 HTS Dose Response Confirmation. [Related pubchem assays: 1046 (Thrombin 1536 HTS; hits were confirmed in this assay)]; format: functional
Vero = assay: cells; format: functional; conditions: Chlorocebus sabaeus
[13] = Luminescence Cell-Based Dose Retest to Confirm Inhibitors of Cancer Stem Cells. [Related pubchem assays (depositor defined):AID2717, AID2721]; format: functional; conditions: Homo sapiens
cells [14] = format: functional, cell-based
cells [15] = format: functional, cell-based; remark: listed apart in the source
Streptococcus = assay: GAS UMAA2166 growth inhibition – luminescence, BacTiterGlo, counter-screen for streptokinase expression inhibitor project, dose response (AID 1915); format: functional, organism-based;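 note: potency for reduction of bacterial viability or growth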
[16] = test system: Streptococcus sp. 'group A'; assay: Streptococcus pyogenes SK(-)GAS viability under kanamycin – luminescence, BacTiterGlo, confirmation, counter-screen for streptokinase expression inhibitor project, dose response (AID 1900); format: functional, organism-based

CC(C)(C)[C@H]1C=C(C(=O)NCc2nc3ccccc3[nH]2)O[C@@H](OCCCCO)C1
IC50 [1]: 83.3 µM (inactive)
IC50 [2]: 2.63 µM (active)
IC50 [3]: 6.66 µM (active)

Cc1cc(C(=O)COc2cccc(-n3cnnn3)c2)c(C)n1-c1ccccc1
EC50 [4]: 48.3 µM (active)
EC50 [5]: 77.4 µM (active)

NC(=O)Nc1ccc(Nc2ccccc2)cc1
IC50 (Large T antigen): 7.83 µM (active)
AC50 [6]: 0.916 µM (active)

COC(=O)[C@@H]1C[C@H]2CC[C@H](O)C[C@H]2N1Cc1ccc(N2CCOCC2)cc1
AC50 (Cytochrome P450 3A4): 20 µM (inconclusive)

Cc1c(N)cccc1N
AC50 (Cytochrome P450 3A4): 15.8 µM (inconclusive)

N=C(N)N/N=C/c1ccc(OCc2ccccc2Cl)cc1
AC50 [7]: 16.6 µM (active)
EC50 [8]: > 60 µM (not active)
EC50 [9]: 0.539 µM (active)
EC50 [4]: 4.14 µM (active)
EC50 [5]: 4.04 µM (active)

CC1CCN(S(=O)(=O)c2cc(C(=O)N3CCN(c4ccccc4)CC3)ccc2Br)CC1
AC50 [10]: 3.22 µM (active)
AC50 [11]: 40.3 µM (active)
AC50 [12]: 4.92 µM (active)

CSCc1nc2scc(-c3ccccc3)c2c(=O)[nH]1
IC50 (Prothrombin): > 50 µM (not active)

CCN(CC)CCCNC(=O)c1csc(Nc2cccc3ccccc23)n1
AC50 [7]: 21.9 µM (active)

Cc1cc2nc(-c3ccc(SCC(=O)Nc4nccs4)nc3)[nH]c2cc1C
EC50 [4]: 19.6 µM (active)
EC50 [5]: 33.3 µM (active)

COc1ccc(C)cc1N1C(=O)C(c2ccccc2)C(c2nc3ccccc3s2)=C1N (stereo not given)
CC50 (Vero): 6.15 µM (active)
EC50 [4]: 3.06 µM (active)
AC50 [13]: 4.88 µM (active)
EC50 [5]: 2.48 µM (active)

O=C(CNC(=O)c1ccccc1F)OCC(=O)c1c[nH]c2ccccc12
EC50 (cells [14]): > 29.9 µM (inactive)
IC50 (cells [15]): > 29.9 µM (inactive)

COc1ccccc1/C=C/c1ccc2cccc(O)c2n1
EC50 (Streptococcus): 6 µM (active)
EC50 [16]: 1.52 µM (active)
CC50 (Vero): > 25 µM (active)
EC50 [8]: > 60 µM (not active)
EC50 [9]: 2.74 µM (active)

O=C(CNC(=O)OCc1ccccc1)Nc1ccc(Br)cc1C(=O)c1ccccc1Cl
EC50 [4]: 44.5 µM (active)
EC50 [5]: 45.4 µM (active)

CC(C)CC#Cc1ccc2c(c1)O[C@@H](CN(C)S(=O)(=O)c1cccc(F)c1)[C@@H](C)CN([C@@H](C)CO)S2(=O)=O
AC50 [10]: 8.81 µM (active)
AC50 [11]: 7.21 µM (active)
AC50 [12]: 11.6 µM (active)

Cc1ccc(CNC(=O)CSc2n[nH]c3c4cc(F)ccc4nc-3n2)cc1
IC50 [1]: 83.3 µM (inactive)
IC50 [2]: 0.785 µM (active)
IC50 [3]: 119 µM (inactive)
